Like-named read-outs stand apart in the source and are kept apart here.
Tests used:
[1] = Cytotoxicity to immature (d2) LUHMES cells, calcein-AM & H-33342 imaging; format: cell-based; settings: human, immature LUHMES d2, 24 h exposure, read-out: EC50 (half-maximal cytotoxic potency), cell viability
Description: (§1) The assays were performed as described previously ([Hoelting et al., 2016]; [Klima et al., 2021]; [Krug et al., 2013]). In brief, 30′000 cells per well were seeded on d2 (LUHMES) / d0 (peripheral neurons, Cortex.4U, CNS.4U) in their respective differentiation media into standard pre-coated 96-well plates. They were incubated for 1 h at 37 °C and 5% CO2 before treatment. 24 h after treatment the Calcein/Hoechst readout was performed.
Neurite area (NA) and viability (V) were assessed as described previously ([Stiegler et al., 2011]). In brief, cells were stained with 1 μM calcein-AM and 1 μg/ml H-33342 for 30 min at 37 °C and 5% CO2. Image acquisition was performed using an Array-Scan VTI HCS Reader (Cellomics, PA, USA) equipped with a Hamamatsu ORCA-ER camera. 10 fields per well were imaged with 2 channels at 20x magnification (2×2 pixel binning). […]
Nuclei were identified in channel 1 depending on intensity, area, size and shape. […] The NA was automatically calculated by excluding the VCSAs from the VCSs. […]
Fig. 3. […] The cell viability was assessed 24 h later by calcein-AM & H-33342 staining and high content imaging. […] The overall cell viability was assessed by measuring resazurin reduction in technical triplicates. […] The cell viability was assessed 24 h later by calcein-AM & H-33342 staining and high content imaging. […]

[2] = test system: Cortical neurons (Cortex.4U); experiment: iPSC-derived neuron viability, calcein-AM & H-33342 imaging; format: cell-based, human
Description: (§2) Commercial preparation of iPSC-derived neurons (Cortex.4U and CNS.4U) were handled and used as described by the manufacturer (nCardia). In brief, plates were coated with 10 μg/ml PLO, 10 μg/ml laminin and 10 μg/ml fibronectin. Cells were thawed and immediately seeded onto 96-well plates in their respective culture media (Cortex.4U: Cortex.4U™ culture medium with Cortex.4U™ supplement; CNS.4U: Neuro.4U Basal Medium [Ax-M-NBM250] with Neuro-Supplement 2 [Ax-M-DCS-DA]) to be used in neurite outgrowth assays.
as §1
(§3) Neurite area (NA) and viability (V) were assessed as described previously ([Stiegler et al., 2011]). In brief, cells were stained with 1 μM calcein-AM and 1 μg/ml H-33342 for 30 min at 37 °C and 5% CO2. Image acquisition was performed using an Array-Scan VTI HCS Reader (Cellomics, PA, USA) equipped with a Hamamatsu ORCA-ER camera. 10 fields per well were imaged with 2 channels at 20x magnification (2×2 pixel binning). Excitation/emission wavelengths of 365 ± 50/535 ± 45 nm were used for Hoechst detection in channel 1 and 474 ± 40/535 ± 45 nm were used for calcein detection in channel 2.

[3] = test system: Mixed central nervous system neurons (CNS.4U); experiment: as above; format: cell-based, human; settings: 24 h, at higher concentrations than LUHMES
Description: as §2, §1, §3

LUHMES neurons = experiment: Time course of cell death in d6 LUHMES (phase contrast, TMRE, H-33342, propidium iodide); format: cell-based, human; settings: 10 μM
Description: Cells were stained either with 50 nM tetramethylrhodamine ethyl ester (TMRE) or 1.5 μM propidium iodide (PI) for at least 30 min at 37 °C and 5% CO2 ([Brüll et al., 2020]; [Krug et al., 2014]). Fluorescent imaging was performed (AxioObserver, Zeiss, Germany) with excitation/emission wavelengths of 575 ± 25/640 ± 35 nm.
To obtain additional information on the death process triggered by aerugine, we also examined earlier time points after exposure to a fixed concentration of 10 μM. Semi-quantitative information was obtained from phase contrast images, by staining of energized mitochondria with the potential-sensitive dye tetramethylrhodamine ethyl ester (TMRE) and by visualization of the chromatin structure with the […] dye H-33342. […] While the neurite structure was well-preserved, some of the cell bodies flattened in a way that the nucleus became visible in phase contrast. The normally round/dome-like cells took a flattened “fried egg” structure. In parallel, the DNA condensed and fragmented into small, round and highly-fluorescent spheres, a typical hallmark of apoptosis. Cells with apoptotic nuclei had lost their TMRE stain. At 8 h, more cell bodies looked flattened (“unhealthy”) and the neurites were thinning. […] This sequence of events is typical of neuronal apoptosis, e.g. under mild excitotoxic conditions, or after exposure to proteasome inhibitors or cytoskeletal poisons ([Gutbier et al., 2018b]; [Leist et al., 1997]; [Volbracht et al., 2001]; [Volbracht et al., 1999]). The overall kinetics of cell death was rather fast, compared to many other toxicants. […] To obtain a more quantitative confirmation of the rapid process, cells were stained with calcein-acetoxymethyl ester and propidium iodide (PI) and observed over time. The staining of nuclei (indication of plasma membrane permeability) by PI was quantified by an imaging algorithm. By 6 h, dead cells increased by 17 ± 6%, by 8 h by 25 ± 5%, and by 10 h, > 95% of the cell nuclei were positive. This confirms the fast cell death process triggered by aerugine (10 μM) in neurons.

[4] = test system: human dopaminergic neurons (LUHMES cells); experiment: Cytotoxicity to mature (d6) LUHMES neurons, calcein-AM & H-33342 high content imaging; format: cell-based; settings: for EC50: mature LUHMES d6, 24 h exposure, read-out: EC50 (half-maximal cytotoxic potency), cell viability
Description: (§4) For toxicity assessment of mature LUHMES neurons, precursor cells were pre-differentiated for 2 days in cell culture flasks pre-coated as described above and differentiation medium. Then, 45′000 cells per well were seeded in differentiation medium into standard 96-well plates pre-coated as described above. They were incubated at 37 °C and 5% CO2 for 4 days before compound treatment. At this time, cells were >99% post-mitotic and had established an extensive neurite network ([Scholz et al., 2011]) The cell viability was assessed via the Calcein/Hoechst readout, the LDH assay and the resazurin reduction assay.
as §3
(§5) Nuclei were identified in channel 1 depending on intensity, area, size and shape. Their outlines were expanded by 3.2 μm to define a virtual cell soma area (VCSA), which was bigger than the average cell soma to prevent false positive NAs. All calcein-positive pixels were defined as viable cellular structures (VCSs). The NA was automatically calculated by excluding the VCSAs from the VCSs. Furthermore all nuclei co-localizing with VCSs were defined as alive.

[5] = as above; format: cell-based, human; settings: human, mature LUHMES d6, 24 h exposure; read-out: EC50 (half-maximal cytotoxic potency), cell viability
Description: as §4, §3, §5

## OCC1CSC(c2ccccc2O)=N1 (centres unmarked) [aerugine, 2-[4-(hydroxymethyl)-4,5-dihydro-1,3-thiazol-2-yl]phenol]
[1]
  EC50 at 24 h: 9.3 ± 1.1 µM
[2]; 24 h
  effect on cell viability: sensitive to aerugine
[2]; cortical neurons vs mature LUHMES
  fold higher toxic concentration than for DA neurons (mature LUHMES): about 50 x
[3]
  effect on cell viability: clearly affected by aerugine
LUHMES neurons; 6 h exposure
  morphology (phase contrast, TMRE, H-33342): clear morphological changes became obvious
LUHMES neurons; 8 h
  mitochondrial membrane potential in intact neurites (TMRE): the mitochondrial membrane potential was lost
LUHMES neurons; 10 h
  morphology (neurites, nuclei): the majority of neurites was lost
LUHMES neurons; by 6 h
  increase of dead cells (PI-stained nuclei): 17 ± 6%
LUHMES neurons; by 8 h
  increase of dead cells (PI-stained nuclei): 25 ± 5%
LUHMES neurons; by 10 h
  PI-positive cell nuclei: > 95%
[4]; d6 LUHMES, 24 h (24 h and 48 h for purified compounds)
  cytotoxicity to DAergic neurons (viability): cytotoxic to DAergic neurons in a time- and concentration-dependent manner
[4]; d6 LUHMES, 24 h assay setup
  effect on neurite area: affected neurites to the same extent and at similar concentrations as cell bodies
[4]; d6 LUHMES, purified compound
  cytotoxic potency range: low μM range
[4]; listed as Aerugine
  EC50: 3 to 4 µM
[4]
  EC50: 3.1 ± 0.7 µM
[4]; mature vs proliferating LUHMES
  increase of aerugine sensitivity by neuronal maturity state: approximately three-fold
[5]
  EC50 at 24 h: 4.1 ± 0.8 µM
